Read-outs that look alike come from different tables or passages of the source. Bridge positions count the residues as written; N and C are the ends. Square brackets hold non-standard residues; d marks the D form. Peptide text beside a SMILES is read from it. 1Nal = N[C@@H](Cc1cccc2ccccc12)C(=O)O

IC50 data for eleven compounds are collected here from patent publication US7820623B2 (priority 2006, dated 2010).

Experiment [1] concerns thapsigargin-induced IL-2 production in human whole blood.
Experiment [2] has as its system thapsigargin-induced IFN-g production in human whole blood. Type of experiment: cell-based.
Where [3] appears, read: read-out: Analogue Activity (IC50) WB/IL-2.
The mark [4] stands for this setting: read-out: Analogue Activity (IC50) WB/IFNg.

On to “GVIINVKCKISRQCAEPCKKAGMRFGKCMNGKCHCTPK [Ala-15 (SEQ ID No: 1412)]”, for which the IC50 in experiment [1] (read-out: Average IC50 IL-2) and in experiment [2] (read-out: Average IC50 IFNg) was 0.107 nM each time.
“GVIANVKCKISRQCLEPCKKAGMRFGKCMNGKCHCTPK [Ala-4 (SEQ ID No: 1403)]”: the IC50 was found to be 0.111 nM in experiment [1] (read-out: Average IC50 IL-2) and 0.0873 nM in experiment [2] (read-out: Average IC50 IFNg).
Turning to “GVIINVKCKISRQCLEPCKKAGMRFGACMNGKCHCTPK [Ala-27 (SEQ ID No: 1423)]”, the figures for the IC50 in experiment [1] (read-out: Average IC50 IL-2) and in experiment [2] (read-out: Average IC50 IFNg) were 3.45 nM and 1.58 nM, respectively.
With `CC[C@H](C)[C@@H]1NC(=O)[C@H](CCCCN)NC(=O)[C@@H](NC(=O)[C@H](CCCCN)NC(=O)[C@@H](NC(=O)[C@H](CC(N)=O)NC(=O)[C@@H](NC(=O)[C@@H](NC(=O)[C@@H](NC(=O)CN)C(C)C)[C@@H](C)CC)[C@@H](C)CC)C(C)C)CSSC[C@@H]2NC(=O)[C@H](CCCCN)NC(=O)CNC(=O)[C@H](C)NC(=O)[C@H](CCCNC(=N)N)NC(=O)[C@H](CCSC)NC(=O)CNC(=O)[C@H](C)NC(=O)[C@H](CCCCN)NC(=O)[C@H](CCCCN)NC(=O)[C@@H]3CSSC[C@@H](C(=O)N[C@H](C(=O)N4CCC[C@H]4C(=O)N[C@@H](CCCCN)C(=O)O)[C@@H](C)O)NC(=O)[C@H](Cc4c[nH]cn4)NC(=O)[C@H](CSSC[C@H](NC(=O)[C@H](CCC(N)=O)NC(=O)[C@H](CCCNC(=N)N)NC(=O)[C@H](CO)NC1=O)C(=O)N[C@@H](CC(C)C)C(=O)N[C@@H](CCC(=O)O)C(=O)N1CCC[C@H]1C(=O)N3)NC(=O)[C@H](CCCCN)NC(=O)CNC(=O)[C@H](CC(N)=O)NC(=O)[C@H](CCSC)NC2=O` [F25A] (H-GVIINVKCKISRQCLEPCKKAGMRAGKCMNGKCHCTPK-OH; disulfide 8-28, 14-33, 18-35), the IC50 in experiment [1] (setting [3]) and in experiment [2] (setting [4]) was 3.08 nM in each case.
On to `CC[C@H](C)[C@@H]1NC(=O)[C@H](CCCCN)NC(=O)[C@@H](NC(=O)[C@H](CCCCN)NC(=O)[C@@H](NC(=O)[C@H](CC(N)=O)NC(=O)[C@@H](NC(=O)[C@@H](NC(=O)[C@@H](NC(=O)CN)C(C)C)[C@@H](C)CC)[C@@H](C)CC)C(C)C)CSSC[C@@H]2NC(=O)[C@H](CCCCN)NC(=O)CNC(=O)[C@H](Cc3ccccc3)NC(=O)[C@H](CCCNC(=N)N)NC(=O)[C@H](CCSC)NC(=O)CNC(=O)[C@H](C)NC(=O)[C@H](C)NC(=O)[C@H](CCCCN)NC(=O)[C@@H]3CSSC[C@@H](C(=O)N[C@H](C(=O)N4CCC[C@H]4C(=O)N[C@@H](CCCCN)C(=O)O)[C@@H](C)O)NC(=O)[C@H](Cc4c[nH]cn4)NC(=O)[C@H](CSSC[C@H](NC(=O)[C@H](CCC(N)=O)NC(=O)[C@H](CCCNC(=N)N)NC(=O)[C@H](CO)NC1=O)C(=O)N[C@@H](CC(C)C)C(=O)N[C@@H](CCC(=O)O)C(=O)N1CCC[C@H]1C(=O)N3)NC(=O)[C@H](CCCCN)NC(=O)CNC(=O)[C@H](CC(N)=O)NC(=O)[C@H](CCSC)NC2=O` [K20A] (H-GVIINVKCKISRQCLEPCKAAGMRFGKCMNGKCHCTPK-OH; disulfide 8-28, 14-33, 18-35), for which the IC50 in experiment [1] (setting [3]) and in experiment [2] (setting [4]) was 0.379 nM in each case.
As to `CC[C@H](C)[C@@H]1NC(=O)[C@H](CCCCN)NC(=O)[C@@H](NC(=O)[C@H](CCCCN)NC(=O)[C@H](CCCNC(=N)N)NC(=O)[C@H](CC(N)=O)NC(=O)[C@@H](NC(=O)[C@@H](NC(=O)[C@@H](NC(=O)CN)C(C)C)[C@@H](C)CC)[C@@H](C)CC)CSSC[C@@H]2NC(=O)[C@H](CCCCN)NC(=O)CNC(=O)[C@H](Cc3ccccc3)NC(=O)[C@H](CCCNC(=N)N)NC(=O)[C@H](CCSC)NC(=O)CNC(=O)[C@H](C)NC(=O)[C@H](CCCCN)NC(=O)[C@H](CCCCN)NC(=O)[C@@H]3CSSC[C@@H](C(=O)N[C@H](C(=O)N4CCC[C@H]4C(=O)N[C@@H](CCCCN)C(=O)O)[C@@H](C)O)NC(=O)[C@H](Cc4c[nH]cn4)NC(=O)[C@H](CSSC[C@H](NC(=O)[C@H](CCC(N)=O)NC(=O)[C@H](CCCNC(=N)N)NC(=O)[C@H](CO)NC1=O)C(=O)N[C@@H](CC(C)C)C(=O)N[C@@H](CCC(=O)O)C(=O)N1CCC[C@H]1C(=O)N3)NC(=O)[C@H](CCCCN)NC(=O)CNC(=O)[C@H](CC(N)=O)NC(=O)[C@H](CCSC)NC2=O` [V6R] (H-GVIINRKCKISRQCLEPCKKAGMRFGKCMNGKCHCTPK-OH; disulfide 8-28, 14-33, 18-35), the IC50 in experiment [1] (setting [3]) was 0.084 nM; in experiment [2] (setting [4]), 0.115 nM.
Turning to `CC[C@H](C)[C@@H]1NC(=O)[C@H](CCCCN)NC(=O)[C@@H](NC(=O)[C@H](CCCCN)NC(=O)[C@@H](NC(=O)[C@H](CC(N)=O)NC(=O)[C@@H](NC(=O)[C@@H](NC(=O)[C@@H](NC(=O)CN)C(C)C)[C@@H](C)CC)[C@@H](C)CC)C(C)C)CSSC[C@@H]2NC(=O)[C@H](CCCCN)NC(=O)[C@H](C)NC(=O)[C@H](Cc3ccccc3)NC(=O)[C@H](CCCNC(=N)N)NC(=O)[C@H](CCSC)NC(=O)CNC(=O)[C@H](C)NC(=O)[C@H](CCCCN)NC(=O)[C@H](CCCCN)NC(=O)[C@@H]3CSSC[C@@H](C(=O)N[C@H](C(=O)N4CCC[C@H]4C(=O)N[C@@H](CCCCN)C(=O)O)[C@@H](C)O)NC(=O)[C@H](Cc4c[nH]cn4)NC(=O)[C@H](CSSC[C@H](NC(=O)[C@H](CCC(N)=O)NC(=O)[C@H](CCCNC(=N)N)NC(=O)[C@H](CO)NC1=O)C(=O)N[C@@H](CC(C)C)C(=O)N[C@@H](CCC(=O)O)C(=O)N1CCC[C@H]1C(=O)N3)NC(=O)[C@H](CCCCN)NC(=O)CNC(=O)[C@H](CC(N)=O)NC(=O)[C@H](CCSC)NC2=O` [G26A] (H-GVIINVKCKISRQCLEPCKKAGMRFAKCMNGKCHCTPK-OH; disulfide 8-28, 14-33, 18-35), the IC50 in experiment [1] (setting [3]) worked out at 12.1 nM; in experiment [2] (setting [4]) it was 10.7 nM.
For the compound `CC[C@H](C)[C@H](NC(=O)[C@@H](NC(=O)CN)C(C)C)C(=O)N[C@H](C(=O)N[C@@H](CC(N)=O)C(=O)N[C@H](C(=O)N[C@@H](CCCCN)C(=O)N[C@H]1CSSC[C@@H]2NC(=O)[C@H](CCCCN)NC(=O)CNC(=O)[C@H](Cc3ccccc3)NC(=O)[C@H](CCCNC(=N)N)NC(=O)[C@H](CCSC)NC(=O)CNC(=O)[C@H](C)NC(=O)[C@H](CCCCN)NC(=O)[C@H](CCCCN)NC(=O)[C@@H]3CSSC[C@@H](C(=O)N[C@H](C(=O)N4CCC[C@H]4C(=O)N[C@@H](CCCCN)C(=O)O)[C@@H](C)O)NC(=O)[C@H](Cc4c[nH]cn4)NC(=O)[C@H](CSSC[C@H](NC(=O)[C@H](CCC(N)=O)NC(=O)[C@H](CCCNC(=N)N)NC(=O)[C@H](CO)NC(=O)[C@H](C)NC(=O)[C@H](CCCCN)NC1=O)C(=O)N[C@@H](CC(C)C)C(=O)N[C@@H](CCC(=O)O)C(=O)N1CCC[C@H]1C(=O)N3)NC(=O)[C@H](CCCCN)NC(=O)CNC(=O)[C@H](CC(N)=O)NC(=O)[C@H](CCSC)NC2=O)C(C)C)[C@@H](C)CC` [I10A] (H-GVIINVKCKASRQCLEPCKKAGMRFGKCMNGKCHCTPK-OH; disulfide 8-28, 14-33, 18-35), the values for the IC50 in experiment [1] (setting [3]) and in experiment [2] (setting [4]) were 0.05 nM and 0.0296 nM, respectively.
Turning to `CC[C@H](C)[C@@H]1NC(=O)[C@H](CCCCN)NC(=O)[C@@H](NC(=O)[C@H](CCCCN)NC(=O)[C@H](Cc2cccc3ccccc23)NC(=O)[C@H](CC(N)=O)NC(=O)[C@@H](NC(=O)[C@@H](NC(=O)[C@@H](NC(=O)CN)C(C)C)[C@@H](C)CC)[C@@H](C)CC)CSSC[C@@H]2NC(=O)[C@H](CCCCN)NC(=O)CNC(=O)[C@H](Cc3ccccc3)NC(=O)[C@H](CCCNC(=N)N)NC(=O)[C@H](CCSC)NC(=O)CNC(=O)[C@H](C)NC(=O)[C@H](CCCCN)NC(=O)[C@H](CCCCN)NC(=O)[C@@H]3CSSC[C@@H](C(=O)N[C@H](C(=O)N4CCC[C@H]4C(=O)N[C@@H](CCCCN)C(=O)O)[C@@H](C)O)NC(=O)[C@H](Cc4c[nH]cn4)NC(=O)[C@H](CSSC[C@H](NC(=O)[C@H](CCC(N)=O)NC(=O)[C@H](CCCNC(=N)N)NC(=O)[C@H](CO)NC1=O)C(=O)N[C@@H](CC(C)C)C(=O)N[C@@H](CCC(=O)O)C(=O)N1CCC[C@H]1C(=O)N3)NC(=O)[C@H](CCCCN)NC(=O)CNC(=O)[C@H](CC(N)=O)NC(=O)[C@H](CCSC)NC2=O` [V6Nal] (H-GVIIN[1Nal]KCKISRQCLEPCKKAGMRFGKCMNGKCHCTPK-OH; disulfide 8-28, 14-33, 18-35), the IC50 in experiment [1] (setting [3]) came to 1.78 nM; in experiment [2] (setting [4]), 2.46 nM.
In the case of `CC[C@H](C)[C@@H]1NC(=O)[C@H](CCCCN)NC(=O)[C@@H](NC(=O)[C@H](CCCCN)NC(=O)[C@@H](NC(=O)[C@H](CC(N)=O)NC(=O)[C@H](Cc2cccc3ccccc23)NC(=O)[C@@H](NC(=O)[C@@H](NC(=O)CN)C(C)C)[C@@H](C)CC)C(C)C)CSSC[C@@H]2NC(=O)[C@H](CCCCN)NC(=O)CNC(=O)[C@H](Cc3ccccc3)NC(=O)[C@H](CCCNC(=N)N)NC(=O)[C@H](CCSC)NC(=O)CNC(=O)[C@H](C)NC(=O)[C@H](CCCCN)NC(=O)[C@H](CCCCN)NC(=O)[C@@H]3CSSC[C@@H](C(=O)N[C@H](C(=O)N4CCC[C@H]4C(=O)N[C@@H](CCCCN)C(=O)O)[C@@H](C)O)NC(=O)[C@H](Cc4c[nH]cn4)NC(=O)[C@H](CSSC[C@H](NC(=O)[C@H](CCC(N)=O)NC(=O)[C@H](CCCNC(=N)N)NC(=O)[C@H](CO)NC1=O)C(=O)N[C@@H](CC(C)C)C(=O)N[C@@H](CCC(=O)O)C(=O)N1CCC[C@H]1C(=O)N3)NC(=O)[C@H](CCCCN)NC(=O)CNC(=O)[C@H](CC(N)=O)NC(=O)[C@H](CCSC)NC2=O` [I4Nal] (H-GVI[1Nal]NVKCKISRQCLEPCKKAGMRFGKCMNGKCHCTPK-OH; disulfide 8-28, 14-33, 18-35), the IC50 was 1.09 nM in experiment [1] (setting [3]) and 1.01 nM in experiment [2] (setting [4]).
On to “GVIINVKCKISRACLEPCKKAGMRFGKCMNGKCHCTPK [Ala-13 (SEQ ID No: 1411)]”, for which the IC50 in experiment [1] (read-out: Average IC50 IL-2) came out at 0.148 nM; in experiment [2] (read-out: Average IC50 IFNg), 0.133 nM.
